# Experimental data reported in PubChem BioAssay AID1117278 (The Scripps Research Institute Molecular Screening Center, 2014).
# Active and inactive are the calls of the source. The rule behind the calls is not given here.
# Tested on: P. falciparum stage V gametocytes, BacTiter-Glo ATP, 24 h
# Assay: viability inhibitors of stage V gametocytes – luminescence, dose response (AID 1117278)
smiles,measurement,value
O=C(C[N+]12CCC(CC1)C(OC(=O)c1ccccc1)C2)c1ccc([N+](=O)[O-])cc1 (stereo unspecified),IC50,> 109 µM (inactive)
